Where “and” joins values, the source holds several entries; their conditions need not be identical. Equal entries are not always repeated. Entries after “also recorded” stand apart in the source; their conditions may differ.
Experiments:
[1] = tested on: client-owned dogs; assay: Randomized, masked, placebo-controlled field pilot study on aging biomarkers (Example 6); assay type: in vivo, dog
Description: The effects of Pioglitazone aging biomarkers in client-owned dogs can be determined. Approximately 60 dogs are enrolled and randomized into two groups at a 3:1 ratio of treatment to control. Dogs can be screened on visit 1, which is 7 days before the study, and complete screening on visit 2, Day 0 of the study. The treatment can be randomized with dosing beginning on Day 0. The study has participant dogs enrolled for approximately 3 months, with evaluation visits about every 30 days for biomarker measurements and safety evaluations. The HRQL, CFI, insulin, and FFA blood levels are measured.
Fasting insulin. Dogs should be fasted for 12 hours before blood draw for fasting insulin. If the dog is not fasted before the blood collection, the Protocol Deviation: Subject Level eCRF must be completed.
The study will be a multi-site, field pilot study. The design is a randomized, masked, placebo-controlled study in client-owned dogs. The study will contain two treatment groups randomized at a 3:1 ratio in Table 10 below.
The study will enroll an estimated 60 dogs across all study sites. Approximately 45 dogs will be treated with IVP, and approximately 15 dogs will be treated with CP. Additional dogs may be enrolled if initial attrition rates exceed the anticipated level. Likewise, fewer dogs may be enrolled if the study ends before full enrollment.
Drug Administration. IVP/CP will be administered by the Owner to the subject once daily starting at study visit 2 and for the duration of the study. The administration route for IVP and CP is by mouth (PO).

[2] = tested on: Beagle dogs
Experimental: This 17-week HFD design, metabolic reversal study was conducted on 4 groups of 12 Beagle dogs each. All dogs included in the study were males, aged 3-7 years, weighing 12.05-22.95 kg. After 63 days (9 weeks) of normal diet or HFD-feeding, Placebo was administered daily by mouth to Groups 1 and 2 while pioglitazone was administered daily by mouth to Groups 3 and 4.
Animals were fed their daily food ration (g) as a split ration. Each feeding (AM or PM) consisted of approximately half the animal's daily food ration and was offered approximately 4 hours apart. Dogs were given approximately 2 hours to consume each ration and any remaining food was weighed back for each feeding.
All dogs were fed ad libitum “normal diet” (ND) consisting of 55% fat for all baseline measurements prior to study start. Prior to the study start, dogs were randomly assigned to either ND or HFD consisting of 74% fat, on which they remained for approximately 9 weeks. After 9 weeks, HFD-fed animals were further randomized to treatment groups prior to dosing based on fasting insulin levels as the primary factor and total body weight as the secondary factor. Dogs in the ND group were continued on ND through the conclusion of the study. Blood collections for Chemistry, Haematology, Triglycerides, Cholesterol, Metabolomics and Lipidomics, efficacy Biomarkers (Adiponectin, Fasting Insulin, and Leptin), pioglitazone pharmacokinetics, Cytokines (IL-6 and TNFa) and Non-esterified fatty acids (NEFA) were performed throughout the study to assess the diet and drug-related effects on markers of safety and metabolic function. Baseline (Day −56) and Pre-Treatment (Day 0) readings of each parameter were compared to Treatment (Day 57) readings.
OGTTs were performed during the Pre-Treatment (Day −14) and Treatment (Day 42) phases to assess glucose and insulin kinetics and insulin sensitivity. OGTTs were carried out as previously described by Coate et al., 2010. Briefly, dogs were fasting overnight prior to conducting the procedure. Blood was sampled and serum and plasma separated at −20 and 0 minutes pre-glucose bolus to establish fasting glucose and insulin values. At 0 minutes (t=0), a glucose bolus (0.9 g/kg, p.o.) was delivered. Blood was collected at 5, 10, 20, 30, 40, 50, 60, 70, 80, 90, 120, 180 and 240 minutes post-glucose bolus. Serum was then analyzed for glucose and plasma was analyzed for insulin levels at each time point.
Dogs were fasted for a minimum of 12 hours prior to the first blood draw of each sampling day. D2O and ^2H2^18O were prepared with autoclaved glassware and utensils, weighed out separately, and drawn into separate syringes. Body weights were taken the day of sampling and prepared D2O and ^2H2^18O were drawn into separate syringes per animal and weighed to the third decimal place prior to administration. Two milliliters (mL) of blood was collected prior to administration of 50 mg/kg of 99% D2O and 150 mg/kg of 97% ^2H2^18O via oral syringe. Blood samples were then collected at 2 h, 24 h, 72 h, 120 h and 168 h after initial D2O+^2H2^18O administration. Following collection, blood was plasma separated in K2EDTA tubes and were stored at −80° C. until analysis.
Individual and summary statistics, arithmetic means, percentage change and within and between group comparisons were done.
Subjects were administered Pioglitazone treatment, and fatty acids analysis was performed from blood samples of subjects. Fatty acids were detected and analyzed by species and quantified. Additionally, the effects of Pioglitazone on each different species of fatty acids were analyzed, as shown in FIG. 6B (Palmitic Acid), FIG. 6C (Linoleic Acid), and FIG. 6D (Oleic Acid).

[3] = tested on: dogs; details: 12 weeks; oral 30, 60, 150 mg/kg/day; cited from earlier work
[4] = tested on: Beagle dogs; assay: Pioglitazone started 2 weeks before HFD to prevent metabolic dysfunction; OGTT and HIEG clamp (Example 5); assay type: in vivo, dog
Description: The purpose of this study was to assess the impact of pioglitazone on HFD-induced insulin resistance, hyperinsulinemia and fatty acid regulation in beagle dogs. We hypothesized that administration of pioglitazone to HFD-fed, metabolically dysfunctional dogs would (1) upregulate adiponectin levels (2) protect whole body insulin sensitivity as measured by an oral glucose tolerance test (OGTT) and hyperinsulinemic euglycemic clamp (HIEG) and (3) prevent increased deleterious fatty acid levels in the face of a HFD.
Study Design: Twenty four animals (between 1 and 2 years old) were acclimated for at least 2 weeks and surgically implanted with a femoral artery catheter under anesthesia. 2 baseline tests were performed before any treatment: an OGTT and a HIEG clamp.
The dogs were then randomly assigned to one of 3 groups: a placebo group (n=8) that received an empty capsule daily, a group that received 1 mg/kg pioglitazone in the form of a 15 mg pill (Dose 1, n=8), a group that received 2 mg/kg pioglitazone in the form of […] (Dose 2, n=8). Pioglitazone pills (Actos, Teva Pharmaceuticals, NJ) were given daily immediately before feeding and flushed with 5 mL of water.
Two weeks after the treatment started, all the animals were put on a HFD (Research Diet 5SQ1, Test Diet from Purina). On Day 46 and 56 after the start of the pioglitazone treatment, the animals were given an OGTT and a HIEG clamp respectively to compare to their baseline metabolic response. On day 46 and 56, placebo and pioglitazone were given one hour before the gavage and one hour before the start of the somatostatin infusion. The same amount of glucose as the initial OGTT study was given and the same rate of insulin and hormone was given during the clamp despite the gain weight of the animal, because we know that the animals mainly gain fat, a tissue that is unresponsive to the level of insulin.
Additionally, every 2 weeks, blood was harvested from each animal for multiple chemical measurements (Adiponectin, Superchem panel (performed by Antech Diagnostics)) before pioglitazone administration and feeding. Pioglitazone was also measured every 2 weeks in the serum, harvested 1 hour after pill administration and feeding.

[5] = tested on: dogs; details: dog, in vivo, cited from earlier work
[6] = tested on: dogs; details: cited from earlier work
[7] = subjects 001-SAR-007 and 003-BAK-018
[8] = HFD-fed Beagle dogs, 1 or 2 mg/kg/day by mouth
[9] = HFD-fed Beagle dogs, vs HFD-fed placebo group
[10] = beagle dogs on HFD, both doses, Day 56, excluding 4 dogs with non-comparable insulins
[11] = beagle dogs on HFD, clamp experiments

Compound `CCc1ccc(CCOc2ccc(CC3SC(=O)NC3=O)cc2)nc1.Cl` (stereo not shown) [pioglitazone] has a TBili ([1]; Subject 001-SAR-007, less than one month after starting, screening 0.5) of 0.2 mg/dL, an insulin ([1]; Subject 001-SAR-007, less than one month after starting, screening 76.8, reference range 5.2-41.5) of 16.2 uIU/mL and an ALP ([1]; Subject 001-SAR-007, less than one month after starting, screening 177, reference range 5-160) of 88 U/L. For the same compound, the AST ([1]; Subject 001-SAR-007, less than one month after starting, screening 182, reference range 16-55) was 22 U/L, the ALT ([1]; Subject 001-SAR-007, less than one month after starting, screening 469, reference range 18-121) was 48 U/L and the ALP ([1]; Subject 003-BAK-016, screening 241 U/L, reference range 5-160 U/L) was “remained elevated”. For the same compound, the insulin ([1]; Subject 003-BAK-016, subsequent visits before visit 6, screening 96.6, reference range 5.2-41.5) was 62.2 uIU/mL and 52.9 uIU/mL, the insulin ([1]; Subject 003-BAK-016, visit 6, 90 days later, screening 96.6) was 42.3 uIU/mL and the insulin ([1]; Subject 003-BAK-018, visit 4 (approximately day 30), screening 66.3, reference range 5.2-41.5) was 15.3 uIU/mL. For the same compound, the ALP ([1]; Subject 003-BAK-018, visit 4 (approximately day 30), screening 1603, reference range 5-160) was 774 U/L, the liver enzymes ([1]; all 3 dogs with elevated baseline insulin) was “reduction in liver enzymes” and the “average reduction in insulin levels” value ([1]; client-owned dogs, baseline to day 90, not statistically significant (p=0.538)) was 2.35 uIU/mL. For the same compound, the “average reductions in insulin levels compared with control group” value ([1]; client-owned dogs, p=0.171) was “trending lower”, the “gross lipemia in the blood samples” value [1, 7] was “eliminating gross lipemia” and the triglycerides [1, 7] was “reduction or normalization”. For the same compound, the “insulin levels in dogs with elevated baseline insulin levels” value ([1]; three pioglitazone-treated dogs) was “notable effect”, the caloric intake ([2]; HFD-fed Beagle dogs) was “without any effects” and the food consumption ([2]; HFD-fed Beagle dogs) was “without any effects”. The leptin levels ([2]; HFD-fed Beagle dogs) was “without any effects”, the “HFD-induced elevation of SFA” value [2, 8] was “reversed HFD-induced elevation of SFA” and the palmitic acid [2, 8] was “decreases in palmitic acid”. For the same compound, the “levels of metabolically deleterious fatty acids (SFAs, palmitic acid, linoleic acid, oleic acid)” value ([2]; HFD-fed Beagle dogs, 1 or 2 mg/kg/day by mouth, GC-MS) was “dose dependently regulates”, the “glucose excursion during glucose tolerance test” value ([2]; HFD-fed Beagle dogs, 1 or 2 mg/kg/day by mouth, OGTT Day 42) was “no impact” and the adiponectin ([2]; HFD-fed Beagle dogs, 1 or 2 mg/kg/day by mouth, biomarker of target engagement) was “significantly upregulates”. The fasting glucose measurements ([2]; HFD-fed Beagle dogs, pioglitazone 1 or 2 mg/kg/day by mouth after 9 weeks HFD) was “no impact”, the “size of adipocytes in the viscera (histological examination)” value ([2]; HFD-fed Beagle dogs, visceral and subcutaneous adipose tissue) was “decreased the size of adipocytes in the viscera” and the “body composition: fat mass” value [2, 9] was “increases in fat mass”. For the same compound, the circulating cholesterol [2, 9] was “significantly reduced”, the circulating triglycerides [2, 9] was “significantly reduced” and the fatty acid profiles [2, 9] was “normalized detrimental fatty acid profiles”. The tolerability of administration ([2]; dog, in vivo) was “tolerated Placebo/pioglitazone administration well”, the “frequency of clinical signs” value [3] was “The frequency appeared dose-dependent” and the “insulin response during the OGTT” value ([4]; beagle dogs on HFD, 1 mg/kg and 2 mg/kg daily, Day 46) was “reduced compared to the placebo group”. For the same compound, the glucose metabolism ([4]; beagle dogs on HFD, OGTT) was “normalize glucose metabolism without increasing insulin secretion”, the “GIR (glucose infusion rate), HIEG clamp” value [4, 10] was “able to overcome the defect” and the “Rd (rate of glucose disappearance), HIEG clamp” value [4, 10] was “able to overcome the defect”. For the same compound, the “fasting FFA levels” value [4, 11] was “reduced”, the inhibition of lipolysis [4, 11] was “improved” and the circulating adiponectin ([4]; beagle dogs, 1 mg/kg and 2 mg/kg daily, by Day 14, vs placebo group) was “significant increase; also recorded: larger and more sustained than in the placebo group”. The serum albumin ([5]; 10 mg/kg/day) was “Decrease in serum albumin and protein”, the serum protein ([5]; 10 mg/kg/day) was “Decrease in serum albumin and protein” and the hematocrit ([5]; 10 mg/kg) was “Reduction in hematocrit in both sexes”. The nontoxic dose ([6]; 26 weeks, oral 0, 1, 3, 10 mg/kg/day) was “be 3 mg/kg/day”, the hydropericardium ([6]; dog, in vivo, 10 mg/kg) was “hydroperi-” and the leukocytes ([6]; dog, in vivo, 10 mg/kg) was “increase in platelet and leukocytes”. The platelet ([6]; dog, in vivo, 10 mg/kg) was “increase in platelet and leukocytes”.

From US12161636B2, “Method of increasing lifespan in mammals” (priority 2023, dated 2024)
